# Where two headings read alike, the source gives them in different places.
# Tests used:
# S. aureus ATCC6538p = assay: Antibacterial activity assay (MIC); assay type: cell-based; settings: Staphylococcus aureus, overnight at 37 °C
# Method: (§1) Because SrtA inhibitors are expected to serve as anti-infective agents and inhibit bacterial pathogenesis without affecting cell viability, the minimum inhibitory concentrations (MICs) of these compounds were also measured to exclude the possible effects of test compounds on S. aureus cell adhesion to the eukaryotic cell matrix protein fibronectin owing to the inhibition of cell growth.
# The MICs of test compounds were determined as previously described. S. aureus ATCC6538p (5 mL) was cultured in tryptic soy broth to saturation at 37 °C and diluted to an OD600 of 0.01. The culture was incubated for an additional 2 h and diluted to an OD600 of 0.005. In each well of a 96-well plate, 180 µL of cells was mixed with 20 µL of a concentrated test compound solution in 10% DMSO (final concentration, 1% DMSO). Culture plates were incubated overnight at 37 °C, and the OD600 was measured using a Multiskan Spectrum spectrophotometer (Thermo Labsystems Inc., Beverly, MA, USA). MIC values were defined as the lowest concentration of the test compounds inhibiting cell growth. Ampicillin was used as a positive control.
# [1] = molecular target: T1, recombinant SrtA derived from S. aureus ATCC6538p (Staphylococcus aureus, UniProt Q2FV99); assay: SrtA inhibition assay (fluorescence, cleavage of dabcyl-LPETG-edans); assay type: biochemical; settings: 37 °C, 1 h
# T1 construct: made in house; host or cells: Escherichia coli
# T1 sequence (Q2FV99 whole entry): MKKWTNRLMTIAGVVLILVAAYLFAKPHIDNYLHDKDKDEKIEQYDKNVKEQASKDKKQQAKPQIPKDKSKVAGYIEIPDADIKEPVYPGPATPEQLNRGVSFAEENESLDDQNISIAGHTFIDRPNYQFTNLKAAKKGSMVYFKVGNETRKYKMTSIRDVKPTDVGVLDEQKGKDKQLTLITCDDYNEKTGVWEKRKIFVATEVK
# Method: Recombinant SrtA derived from S. aureus ATCC6538p was purified from Escherichia coli extracts using metal chelate-affinity chromatography. The enzyme activity was determined from the fluorescence intensity upon cleavage of a peptide substrate containing the LPETG motif. Throughout the separation process, the crude extract and chromatographic fractions containing fungal metabolites of strain F452 inhibited the activity of SrtA. Accordingly, the same bioassay was performed using pure compounds.
# The srtA gene from S. aureus ATCC6538p was expressed and recombinant SrtA was purified as previously described. The SrtA inhibition test was carried out by analyzing the increased fluorescence intensity resulting from the cleavage of synthetic peptide substrate dabcyl-LPETG-edans (AnaSpec, Inc., Fremont, CA, USA) with slight modification. The reaction was carried out with 100 μL buffer (50 mM Tris-HCl, 5 mM CaCl2, and 150 mM NaCl, pH 7.5), 7.5 µM synthetic peptide, 7.5 µM purified SrtA, and test samples at various concentrations. […] The SrtA inhibition assay was conducted at 37 °C for 1 h, and inhibition was quantified fluorometrically using a microplate reader (FLx800, BioTek Instruments, Winooski, VT, USA) at excitation and emission wavelengths of 350 and 495 nm, respectively. pHMB and berberine chloride were used as reference inhibitors of SrtA.
# [2] = Cytotoxicity assay (SRB), K562; assay type: cell-based; settings: human, K562 (leukemia) cells, K562, 72 h
# Method: as §1
# (§2) The effect of compounds (1–8) on cell proliferation was measured by the sulforhodamine B (SRB) cellular protein-staining method. In brief, A549 (lung cancer) and K562 (leukemia) cells (1 × 10^4 cells in 190 μL of complete DMEM) were seeded in 96-well plates with various concentrations of compounds (1–8) and incubated at 37 °C in a humidified atmosphere with 5% CO2. After 72 h of compound (1–8) treatment, the cells were fixed with 10% TCA solution for 1 h, and cellular proteins were stained with a solution of 0.4% SRB in 1% acetic acid. The stained cells were dissolved in 10 mM Tris buffer (pH 10.0). The effect of compounds (1–8) on cell viability was calculated as a percentage relative to a solvent-treated control, and the IC50 values were calculated using a nonlinear regression analysis (percent survival versus concentration). Etoposide was used as a positive control.
# [3] = Cytotoxicity assay (SRB), A549; assay type: cell-based; settings: human, A549 (lung cancer) cells, A549, 72 h
# Method: as §1, §2
# PC-12 cells = test system: PC-12 cells; design: method as in PMID 14698172; settings: cited from earlier work
# SrtA = molecular target: T2, SrtA (Staphylococcus aureus, UniProt Q2FV99); assay: SrtA enzyme kinetics (Lineweaver-Burk, Dixon plot, dialysis); assay type: biochemical; settings: for type of inhibition: Lineweaver and Burk plot, at IC50 or twofold IC50; for binding to SrtA (reversibility): enzyme activity recovered by dialysis within 2 h
# T2 construct: made in house; host or cells: Escherichia coli
# T2 sequence (Q2FV99 whole entry): as above
# Method: To determine the type of inhibition, kinetic studies were performed with compounds 1 and 3 at IC50 or twofold IC50 based on a Lineweaver and Burk plot (Figure 2). Inhibitor constants were obtained by a Dixon plot. […] Moreover, the binding of compounds 1 and 3 to SrtA was reversible because the enzyme activity was indeed recovered by dialysis within 2 h, excluding the possible existence of a covalent bond between inhibitor and enzyme.
# All sortase (SrtA) assays were performed at 37 °C in SrtA enzyme buffer as described above. The inhibitors 1 and 3 were dissolved in DMSO and immediately diluted to the desired working concentration with the same SrtA buffer. The enzymatic inhibition measurements were carried out at different substrate concentrations in the presence and absence of a given concentration of inhibitor, and their kinetics were evaluated by the Lineweaver and Burk plot method. For the dialysis kinetic studies, a solution of enzyme (0.96 mL, 75 μM) and fixed inhibitor concentration (0.04 mL) was prepared and dialyzed against 100 mL buffer at 37 °C for 2 h using regenerated cellulose dialysis membranes SPECTRAPOR® (Rancho Dominguez, CA, USA). Aliquots of 100 μL of the enzyme-inhibitor mixture were taken in time intervals of 0, 30, 60, 90, and 120 min and added to 0.020 mL of substrate (7.5 μM), and after an hour of incubation the enzyme activity was measured. A control solution prepared with enzyme and buffer (SrtA buffer, 100 μL; SrtA, 7.5 μM) was treated similarly.
# [4] = test system: S. aureus strain Newman (wild-type) adhesion to fibronectin; assay: Fibronectin-binding assay; assay type: cell-based, Staphylococcus aureus
# Text: An active SrtA enzyme is required for the attachment of S. aureus to eukaryotic cell matrix proteins, such as fibronectin and fibrinogen, thus accelerating bacterial adhesion to host tissues and subsequent invasion. The srtA^− mutant strain cannot bind these proteins. Thus, SrtA inhibitors should inhibit SrtA activity in vivo and in turn reduce fibronectin-binding protein surface display. Initially, the SrtA-mediated fibronectin-binding capacities of S. aureus strain Newman (wild-type) and its isogenic srtA knockout mutant (srtA^−) to fibronectin were evaluated. […] Based on SrtA inhibition intensity, compound 1 was selected. The results of the inhibition of S. aureus adhesion to fibronectin via fibronectin-binding protein by compound 1 are shown in Figure 3b.
# S. aureus strains used were Newman (wild-type) and the isogenic srtA knockout mutant (srtA^−). These strains were cultured in tryptic soy broth at 37 °C at 200 rpm up to mid-log phase (OD600 = 0.5). The fibronectin-binding assay was performed as described previously. Cells were treated with test compounds at their indicated concentrations. Every 30 min for 2.5 h, a 0.65 mL cell suspension was centrifuged at 10,000× g for 10 min, and the supernatant was eliminated. […] Plates were dried overnight and absorbance was measured at 560 nm using a microplate reader.
# Colletotrichum acutatum = test system: Colletotrichum acutatum; design: method as in PMID 26998701; settings: cited from earlier work
# Bacillus subtilis = test system: Bacillus subtilis; design: method as in PMID 26363876; settings: cited from earlier work
# [5] = test system: human prostate cancer cell line PC3; design: method as in PMID 26363876; settings: cited from earlier work
# [6] = SrtA IC50, recombinant SrtA, value in parentheses
SMILES,MIC (S. aureus ATCC6538p),MIC (S. aureus ATCC6538p; value in parentheses),"IC50 ([1]; SrtA IC50, recombinant SrtA)","IC50 [1, 6]",IC50 at 72 h [2],IC50 at 72 h [3],further results
"CC1(C)S[C@@H]2[C@H](NC(=O)[C@H](N)c3ccccc3)C(=O)N2[C@H]1C(=O)O [Ampicillin, reference compound]",0.4 µM,0.1 µg/mL,–,–,–,–,–
"COc1ccc2cc3[n+](cc2c1OC)CCc1cc2c(cc1-3)OCO2 [Berberine chloride, berberine chloride, reference compound]",> 332 µM,> 128 µg/mL,85.9 ± 1.2 µM,94.8 µM,–,–,–
"CC1CCC2C(C=CC(C)(O)C2(C)C(=O)CCO)C1 (stereo not drawn) [Compound 1, aspermytin A]",> 480 µM,> 128 µg/mL,146 ± 2.3 µM,146 ± 0.6 µM,> 100 µM,> 100 µM,"neurotrophic effects (PC-12 cells): significant neurotrophic effects; Ki (SrtA): 265 µM; type of inhibition (SrtA): mixed inhibitor; binding to SrtA (reversibility) (SrtA): reversible; onset and magnitude of inhibition of Newman strain adhesion to fibronectin ([4]; 4× the SrtA IC50 value): comparable to the behavior of the untreated srtA knockout mutant; bacterial adherence to fibronectin-coated surfaces ([4]; strain Newman, 0-, 1-, 2-, or 4-fold the SrtA IC50): significantly reduced"
"CCC(C)C1NC(=O)C(C(C)C)n2c1nc1ccc(OC)cc1c2=O (stereo not drawn) [Compound 2, versicomide A]",> 373 µM,> 128 µg/mL,269 ± 3.9 µM,269.3 ± 1.4 µM,13 to 50 µM,13 to 50 µM,–
"CCC(C)C1NC(=O)C(C(C)C)n2c1nc1c(c2=O)C=C(OC)C=CO1 (stereo not drawn) [Compound 3, versicoloid A]",> 356 µM,> 128 µg/mL,193 ± 2.5 µM,193.4 ± 0.899 µM,13 to 50 µM,13 to 50 µM,minimum inhibitory concentration (MIC) (Colletotrichum acutatum): 1.6 µg/mL; Ki (SrtA): 83 µM; type of inhibition (SrtA): uncompetitive inhibitor; binding to SrtA (reversibility) (SrtA): reversible
"CC1C(=O)N2c3ccccc3C3(O)CC(n4cnc5ccccc5c4=O)C(=O)N1C23 (stereo not drawn) [Compound 4, isochaetominine A]",> 318 µM,> 128 µg/mL,268 ± 4.1 µM,267.9 ± 1.5 µM,13 to 50 µM,13 to 50 µM,–
"CCC1C(=O)N2c3ccccc3C3(O)CC(n4cnc5ccccc5c4=O)C(=O)N1C23 (stereo not drawn) [Compound 5, isochaetominine B]",> 307 µM,> 128 µg/mL,232 ± 3.7 µM,232.4 ± 1.4 µM,13 to 50 µM,13 to 50 µM,–
"CC(C)C1C(=O)N2c3ccccc3C3(O)CC(n4cnc5ccccc5c4=O)C(=O)N1C23 (stereo not drawn) [Compound 6, isochaetominine C]",> 297 µM,> 128 µg/mL,216 ± 2.5 µM,216.3 ± 1.1 µM,13 to 50 µM,13 to 50 µM,inhibition against Bacillus subtilis (Bacillus subtilis): weak inhibition
"CC(C)C1C(=O)N2c3ccccc3C3(O)CC(n4cnc5ccccc5c4=O)C(=O)N1C23 (stereo not drawn) [Compound 7, 14-epi-isochaetominine C]",–,–,237 ± 3.8 µM,237.2 ± 1.2 µM,–,–,cytotoxic activity [5]: weak cytotoxic activity
"CC12NC(=O)C(Cc3c1[nH]c1ccccc31)n1c2nc2ccccc2c1=O (stereo not drawn) [Compound 8, fumiquinazoline K]",> 359 µM,> 128 µg/mL,–,–,> 100 µM,> 100 µM,"IC50 ([1]; read-out: SrtA IC50, recombinant SrtA): 235 ± 2.6 µM; IC50 ([1]; read-out: SrtA IC50, recombinant SrtA, value in parentheses): 235.1 ± 0.9 µM"
"COc1cc([C@@H]2c3cc4c(cc3[C@@H](O[C@@H]3O[C@@H]5CO[C@@H](C)O[C@H]5[C@H](O)[C@H]3O)[C@H]3COC(=O)[C@H]23)OCO4)cc(OC)c1O [etoposide, reference compound]",–,–,–,–,0.5 µM,0.5 µM,–
"O=C(O)c1cc[c]([Hg][OH])cc1 [pHMB, para-hydroxymercuribenzoic acid, reference compound]",–,–,–,–,–,–,"IC50 ([1]; recombinant SrtA, read-out: SrtA IC50): 112 ± 1.7 µM; SrtA IC50 ([1]; recombinant SrtA, value in parentheses): 33.1 ± 0.5 µg/mL"

# — article PMC7401278, “Sortase A-Inhibitory Metabolites from a Marine-Derived Fungus Aspergillus sp” (Marine Drugs, 2020)
